According to patent publication US20240391862A1, “(1,4,5-TRISUBSTITUTED-1H-PYRAZOL-3-YL)OXY-2-ALKOXY ALKYL ACIDS AND THEIR DERIVATIVES, THEIR SALTS AND THEIR USE AS HERBICIDAL AGENTS” (Bayer AKtiengesellschaft, priority 2021, published 2024):

Tests used:
Test in all cases: Post-emergence herbicidal effect, greenhouse pot test
VERPE = format: in vivo, Veronica persica
Summary of the method: (§1)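 Weeds sown in sandy loam, greenhouse-grown 2–3 weeks, then sprayed at one-leaf stage with WP or EC formulations in water plus 0.5% additive at 600 l/ha. Rates 20 to 320 g/ha. Visual rating after about 3 weeks versus untreated controls (100% = plants dead, 0% = like control).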

ECHCG = format: in vivo, Echinochloa crus-galli
Summary of the method: as §1

AMARE = format: in vivo, Amaranthus retroflexus; conditions: visual rating about 3 weeks after treatment
Summary of the method: as §1

PHBPU = format: in vivo, Ipomoea purpurea
Summary of the method: as §1

KCHSC = format: in vivo
Summary of the method: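 Visual rating of activity against untreated plants (100% = plants died, 0% = no effect), done about 3 weeks after treatment. Compounds applied at 20–320 g/ha as aqueous spray (600 l/ha, 0.5% additive) from WP or EC formulations onto one-leaf-stage plants grown in sandy loam under greenhouse conditions.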

ALOMY = format: in vivo, Alopecurus myosuroides; conditions: visual rating about 3 weeks after treatment
Summary of the method: as §1

MATIN = format: in vivo, Tripleurospermum inodorum
Summary of the method: as §1

LOLRI = format: in vivo, Lolium rigidum
Summary of the method: as §1

ABUTH = format: in vivo, Abutilon theophrasti; conditions: visual rating about 3 weeks after treatment
Summary of the method: as §1

AVEFA = format: in vivo, Avena fatua; conditions: visual rating about 3 weeks after treatment
Summary of the method: as §1

POLCO = format: in vivo, Fallopia convolvulus
Summary of the method: as §1

SETVI = format: in vivo, Setaria viridis
Summary of the method: as §1

DIGSA = format: in vivo, Digitaria sanguinalis; conditions: 320 g/ha, visual rating about 3 weeks after treatment
Summary of the method: as §1

VIOTR = format: in vivo, Viola tricolor
Summary of the method: as §1

CCOC(=O)C(OCC)Oc1nn(-c2ccccc2F)c(-c2ccc(F)nc2)c1Br (single isomer, unassigned) [Example I-66, Ethyl (2R*)-{[4-bromo-1-(2-fluorophenyl)-5-(6-fluoropyridin-3-yl)-1H-pyrazol-3-yl]oxy}(ethoxy)acetate]
90%: pest or weed control at 320 g/ha (VERPE; Veronica persica, 504 h, 320 g/ha, read-out: Post-emergence effect against VERPE in %) | pest or weed control at 80 g/ha (ECHCG; Echinochloa crus-galli, 504 h, 80 g/ha, read-out: Post-emergence effect against ECHCG in %) | pest or weed control at 320 g/ha (ECHCG; Echinochloa crus-galli, 504 h, 320 g/ha, read-out: Post-emergence effect against ECHCG in %) | pest or weed control at 320 g/ha (PHBPU; Ipomoea purpurea, 504 h, 320 g/ha, read-out: Post-emergence effect against PHBPU in %) | pest or weed control at 320 g/ha (KCHSC; 504 h, 320 g/ha, read-out: Post-emergence effect against KCHSC in %) | pest or weed control at 320 g/ha (ALOMY; Alopecurus myosuroides, 504 h, 320 g/ha, read-out: Post-emergence effect against ALOMY) | pest or weed control at 320 g/ha (MATIN; Tripleurospermum inodorum, 504 h, 320 g/ha, read-out: Post-emergence effect against MATIN in %) | pest or weed control at 320 g/ha (LOLRI; Lolium rigidum, 504 h, 320 g/ha, read-out: Post-emergence effect against LOLRI in %) | pest or weed control at 320 g/ha (ABUTH; Abutilon theophrasti, 504 h, 320 g/ha, read-out: Post-emergence effect against ABUTH) | pest or weed control at 320 g/ha (SETVI; Setaria viridis, 504 h, 320 g/ha, read-out: Post-emergence effect against SETVI in %) | pest or weed control at 320 g/ha (DIGSA; Digitaria sanguinalis, 504 h, read-out: Post-emergence effect against DIGSA)
80%: pest or weed control at 80 g/ha (VERPE; Veronica persica, 504 h, 80 g/ha, read-out: Post-emergence effect against VERPE in %) | pest or weed control at 80 g/ha (AMARE; Amaranthus retroflexus, 504 h, 80 g/ha, read-out: Post-emergence effect against AMARE) | pest or weed control at 320 g/ha (AMARE; Amaranthus retroflexus, 504 h, 320 g/ha, read-out: Post-emergence effect against AMARE) | pest or weed control at 20 g/ha (PHBPU; Ipomoea purpurea, 504 h, 20 g/ha, read-out: Post-emergence effect against PHBPU in %) | pest or weed control at 80 g/ha (PHBPU; Ipomoea purpurea, 504 h, 80 g/ha, read-out: Post-emergence effect against PHBPU in %) | pest or weed control at 80 g/ha (KCHSC; 504 h, 80 g/ha, read-out: Post-emergence effect against KCHSC in %) | pest or weed control at 80 g/ha (MATIN; Tripleurospermum inodorum, 504 h, 80 g/ha, read-out: Post-emergence effect against MATIN in %) | pest or weed control at 80 g/ha (ABUTH; Abutilon theophrasti, 504 h, 80 g/ha, read-out: Post-emergence effect against ABUTH) | pest or weed control at 320 g/ha (AVEFA; Avena fatua, 504 h, 320 g/ha, read-out: Post-emergence effect against AVEFA) | pest or weed control at 320 g/ha (POLCO; Fallopia convolvulus, 504 h, 320 g/ha, read-out: Post-emergence effect against POLCO in %)

COC(=O)CCOC(=O)C(OC)Oc1nn(-c2cc(F)ccc2F)c(-c2cncc(F)c2)c1C1CC1 (single isomer, unassigned) [Example I-79]
90%: Post-emergence effect against VERPE in % (VERPE; 20 g/ha) | Post-emergence effect against VERPE in % (VERPE; 80 g/ha) | Post-emergence effect against VERPE in % (VERPE; 320 g/ha) | Post-emergence effect against VIOTR in % (VIOTR; 20 g/ha) | Post-emergence effect against VIOTR in % (VIOTR; 80 g/ha) | Post-emergence effect against VIOTR in % (VIOTR; 320 g/ha) | Post-emergence effect against ECHCG in % (ECHCG; 80 g/ha) | Post-emergence effect against ECHCG in % (ECHCG; 320 g/ha) | Post-emergence effect against PHBPU in % (PHBPU; 20 g/ha) | Post-emergence effect against PHBPU in % (PHBPU; 80 g/ha) | Post-emergence effect against PHBPU in % (PHBPU; 320 g/ha) | Post-emergence effect against ALOMY (ALOMY; 320 g/ha) | Post-emergence effect against LOLRI in % (LOLRI; 80 g/ha) | Post-emergence effect against LOLRI in % (LOLRI; 320 g/ha) | Post-emergence effect against ABUTH (ABUTH; 320 g/ha) | Post-emergence effect against AVEFA (AVEFA; 80 g/ha) | Post-emergence effect against AVEFA (AVEFA; 320 g/ha) | Post-emergence effect against POLCO in % (POLCO; 80 g/ha) | Post-emergence effect against POLCO in % (POLCO; 320 g/ha) | Post-emergence effect against SETVI in % (SETVI; 20 g/ha) | Post-emergence effect against SETVI in % (SETVI; 80 g/ha) | Post-emergence effect against SETVI in % (SETVI; 320 g/ha)
80%: Post-emergence effect against ECHCG (ECHCG; 20 g/ha, visual rating about 3 weeks after treatment) | Post-emergence effect against AMARE (AMARE; 20 g/ha) | Post-emergence effect against AMARE (AMARE; 80 g/ha) | Post-emergence effect against AMARE (AMARE; 320 g/ha) | Post-emergence effect against KCHSC in % (KCHSC; 320 g/ha) | Post-emergence effect against ALOMY (ALOMY; 80 g/ha) | Post-emergence effect against MATIN in % (MATIN; 80 g/ha) | Post-emergence effect against MATIN in % (MATIN; 320 g/ha) | Post-emergence effect against ABUTH (ABUTH; 20 g/ha) | Post-emergence effect against ABUTH (ABUTH; 80 g/ha) | Post-emergence effect against DIGSA (DIGSA)
